Data reported in patent US20170325452A1, “Active compound combinations” (BAYER CROPSCIENCE AKTIENGESELLSCHAFT, priority 2014, published 2017).

How the values were obtained:
Alternaria solani = experiment: in vivo preventive test on Alternaria test (tomatoes); conditions: single active compound
Excerpt: (§1) A synergistic effect of fungicides is always present when the fungicidal activity of the active compound combinations exceeds the total of the activities of the active compounds when applied individually. The expected activity for a given combination of two active compounds can be calculated as follows (cf. Colby, S. R., “Calculating Synergistic and Antagonistic Responses of Herbicide Combinations”, Weeds 1967, 15, 20-22):
(§2) • X is the efficacy when active compound A is applied at an application rate of m ppm (or g/ha), • Y is the efficacy when active compound B is applied at an application rate of n ppm (or g/ha), • E is the efficacy when the active compounds A and B are applied at application rates of m and n ppm (or g/ha), respectively, and then
(§3) The degree of efficacy, expressed in % is denoted. 0% means an efficacy which corresponds to that of the control while an efficacy of 100% means that no disease is observed.
Example: In Vivo Preventive Test on Alternaria Test (Tomatoes)
(§4) • Solvent: 24.5 parts by weight of acetone • 24.5 parts by weight of dimethylacetamide • Emulsifier: 1 part by weight of alkylaryl polyglycol ether
(§5) To produce a suitable preparation of active compound, 1 part by weight of active compound is mixed with the stated amounts of solvent and emulsifier, and the concentrate is diluted with water to the desired concentration.
(§6) To test for preventive activity, young plants are sprayed with the preparation of active compound at the stated rate of application. After the spray coating has dried on, the plants are inoculated with an aqueous spore suspension of Alternaria solani. The plants are then placed in an incubation cabinet at approximately 20° C. and a relative atmospheric humidity of 100%.
The test is evaluated 3 days after the inoculation. 0% means an efficacy which corresponds to that of the untreated control while an efficacy of 100% means that no disease is observed.

Phakopsora pachyrhizi = experiment: in vivo preventive test on Phakopsora test (soybeans); conditions: single active compound
Excerpt: as §1, §2, §3
Example: In Vivo Preventive Test on Phakopsora Test (Soybeans)
as §4, §5
as §6, with “the causal agent of soybean rust (Phakopsora pachyrhizi) and stay for 24 h without light” for “Alternaria solani. The plants are then placed”, “24°” for “20°”, “95%.” for “100%.”
The plants remain in the incubation cabinet at approximately 24° C. and a relative atmospheric humidity of approximately 80% and a day/night interval of 12 h.
The test is evaluated 7 days after the inoculation. 0% means an efficacy which corresponds to that of the untreated control, while an efficacy of 100% means that no disease is observed.

Botrytis cinerea = experiment: in vivo preventive test on Botrytis test (beans); conditions: single active compound, the 3rd table
Excerpt: as §1, §2, §3
Example: In Vivo Preventive Test on Botrytis Test (Beans)
as §4, §5
To test for preventive activity, young plants are sprayed with the preparation of active compound. After the spray coating has dried on, 2 small pieces of agar covered with growth of Botrytis cinerea are placed on each leaf. The inoculated plants are placed in a darkened chamber at 20° C. and a relative atmospheric humidity of 100%.
2 days after the inoculation, the size of the lesions on the leaves is evaluated. 0% means an efficacy which corresponds to that of the untreated control, while an efficacy of 100% means that no disease is observed.

Venturia inaequalis = experiment: in vivo preventive test on Venturia test (apples); conditions: single active compound
Excerpt: as §1, §2, §3
Example: In Vivo Preventive Test on Venturia Test (Apples)
as §4, §5
as §6, with “conidia” for “spore”, “the causal agent of apple scab (Venturia inaequalis) and” for “Alternaria solani. The plants are”, “remain for 1 day” for “placed”
The plants are then placed in a greenhouse at approximately 21° C. and a relative atmospheric humidity of approximately 90%.
(§7) The test is evaluated 10 days after the inoculation. 0% means an efficacy which corresponds to that of the untreated control, while an efficacy of 100% means that no disease is observed.

Uromyces appendiculatus = experiment: in vivo preventive test on Uromyces test (beans); conditions: single active compound, the 7th table
Excerpt: as §1, §2, §3
Example: In Vivo Preventive Test on Uromyces Test (Beans)
as §4
To produce a suitable preparation of active compound, 1 part by weight of active compound is mixed with the stated amounts of solvent and emulsifier, and the concentrate is diluted with water to the desired concentration. To test for preventive activity, young plants are sprayed with the preparation of active compound at the stated rate of application. After the spray coating has dried on, the plants are inoculated with an aqueous spore suspension of the causal agent of bean rust (Uromyces appendiculatus) and then remain for 1 day in an incubation cabinet at approximately 20° C. and a relative atmospheric humidity of 100%. The plants are then placed in a greenhouse at approximately 21° C. and a relative atmospheric humidity of approximately 90%.
as §7

## CO/C=C(/C(=O)OC)c1ccccc1Oc1cc(Oc2ccccc2C#N)ncn1 [1.3, azoxystrobin]
Alternaria solani; 0.25 ppm a.i., the 1st table
  Efficacy in % found: 45%
Alternaria solani; 0.25 ppm a.i., the 2nd table
  Efficacy in % found: 35%
Alternaria solani; 0.5 ppm a.i., the 1st table
  Efficacy in % found: 35%
Alternaria solani; 0.5 ppm a.i., the 2nd table
  Efficacy in % found: 8%
Alternaria solani; 1 ppm a.i., the 1st table
  Efficacy in % found: 65%
Alternaria solani; 1 ppm a.i., the 2nd table
  Efficacy in % found: 15%
Phakopsora pachyrhizi; 0.25 ppm a.i., the 4th table
  Efficacy in % found: 0%
Phakopsora pachyrhizi; 0.25 ppm a.i., the 5th table
  Efficacy in % found: 16%
Phakopsora pachyrhizi; 0.5 ppm a.i., the 4th table
  Efficacy in % found: 18%
Phakopsora pachyrhizi; 0.5 ppm a.i., the 5th table
  Efficacy in % found: 41%
Botrytis cinerea; 0.25 ppm a.i.
  Efficacy in % found: 30%
Botrytis cinerea; 0.5 ppm a.i.
  Efficacy in % found: 15%
Venturia inaequalis; 0.5 ppm a.i., the 8th table
  Efficacy in % found: 25%
Venturia inaequalis; 0.5 ppm a.i., the 9th table
  Efficacy in % found: 88%
Venturia inaequalis; 1 ppm a.i., the 8th table
  Efficacy in % found: 30%
Venturia inaequalis; 1 ppm a.i., the 9th table
  Efficacy in % found: 94%

## CO/C=C(/C(=O)OC)c1ccccc1COc1cccc(C(F)(F)F)n1 [1.16, picoxystrobin]
Alternaria solani; 0.25 ppm a.i., the 1st table
  Efficacy in % found: 30%
Alternaria solani; 0.25 ppm a.i., the 2nd table
  Efficacy in % found: 8%
Alternaria solani; 0.5 ppm a.i., the 1st table
  Efficacy in % found: 30%
Alternaria solani; 0.5 ppm a.i., the 2nd table
  Efficacy in % found: 8%
Alternaria solani; 1 ppm a.i., the 1st table
  Efficacy in % found: 50%
Alternaria solani; 1 ppm a.i., the 2nd table
  Efficacy in % found: 35%
Phakopsora pachyrhizi; 0.25 ppm a.i., the 4th table
  Efficacy in % found: 0%
Phakopsora pachyrhizi; 0.25 ppm a.i., the 5th table
  Efficacy in % found: 0%
Phakopsora pachyrhizi; 0.5 ppm a.i., the 4th table
  Efficacy in % found: 24%
Phakopsora pachyrhizi; 0.5 ppm a.i., the 5th table
  Efficacy in % found: 0%
Phakopsora pachyrhizi; 1 ppm a.i., the 4th table
  Efficacy in % found: 9%
Phakopsora pachyrhizi; 1 ppm a.i., the 5th table
  Efficacy in % found: 62%
Botrytis cinerea; 0.25 ppm a.i.
  Efficacy in % found: 40%
Botrytis cinerea; 0.5 ppm a.i.
  Efficacy in % found: 40%
Venturia inaequalis; 0.5 ppm a.i., the 9th table
  Efficacy in % found: 13%

## CON=C(C(=O)OC)c1ccccc1CON=C(C)c1cccc(C(F)(F)F)c1 [1.22, trifloxystrobin]
Uromyces appendiculatus; 0.25 ppm a.i.
  Efficacy in % found: 0%
Uromyces appendiculatus; 1 ppm a.i.
  Efficacy in % found: 0%
Alternaria solani; 0.25 ppm a.i., the 1st table
  Efficacy in % found: 8%
Alternaria solani; 0.5 ppm a.i., the 1st table
  Efficacy in % found: 24%
Alternaria solani; 1 ppm a.i., the 1st table
  Efficacy in % found: 35%
Phakopsora pachyrhizi; 0.25 ppm a.i., the 6th table
  Efficacy in % found: 0%
Phakopsora pachyrhizi; 0.5 ppm a.i., the 6th table
  Efficacy in % found: 0%
Phakopsora pachyrhizi; 1 ppm a.i., the 6th table
  Efficacy in % found: 0%
Venturia inaequalis; 0.25 ppm a.i., the 10th table
  Efficacy in % found: 0%
Venturia inaequalis; 0.5 ppm a.i., the 10th table
  Efficacy in % found: 5%
Venturia inaequalis; 1 ppm a.i., the 10th table
  Efficacy in % found: 5%

## CCC1CC(C)(C)c2cccc(NC(=O)c3cccnc3C(F)F)c21 (stereo not drawn) [(I-3), 2-(difluoromethyl)-N-(3-ethyl-1,1-dimethyl-2,3-dihydro-1H-inden-4-yl)nicotinamide]
Phakopsora pachyrhizi; 0.5 ppm a.i., the 6th table
  Efficacy in % found: 28%
Phakopsora pachyrhizi; 1 ppm a.i., the 6th table
  Efficacy in % found: 38%
Venturia inaequalis; 0.25 ppm a.i., the 8th table
  Efficacy in % found: 10%
Venturia inaequalis; 1 ppm a.i., the 8th table
  Efficacy in % found: 13%
Venturia inaequalis; 1 ppm a.i., the 10th table
  Efficacy in % found: 15%

## CC[C@@H]1CC(C)(C)c2cccc(NC(=O)c3cccnc3C(F)F)c21 [(I-4), 2-(difluoromethyl)-N-[(3R)-3-ethyl-1,1-dimethyl-2,3-dihydro-1H-inden-4-yl]nicotinamide]
Phakopsora pachyrhizi; 0.5 ppm a.i., the 4th table
  Efficacy in % found: 87%
Phakopsora pachyrhizi; 1 ppm a.i., the 4th table
  Efficacy in % found: 87%
Botrytis cinerea; 0.5 ppm a.i.
  Efficacy in % found: 15%
Venturia inaequalis; 0.25 ppm a.i., the 8th table
  Efficacy in % found: 10%
Venturia inaequalis; 1 ppm a.i., the 10th table
  Efficacy in % found: 37%

## CCCC1CC(C)(C)c2cccc(NC(=O)c3cccnc3C(F)F)c21 (stereo not drawn) [(I-5), 2-(difluoromethyl)-N-(1,1-dimethyl-3-propyl-2,3-dihydro-1H-inden-4-yl)nicotinamide]
Uromyces appendiculatus; 0.25 ppm a.i.
  Efficacy in % found: 93%
Venturia inaequalis; 1 ppm a.i., the 10th table
  Efficacy in % found: 10%

## CCC[C@@H]1CC(C)(C)c2cccc(NC(=O)c3cccnc3C(F)F)c21 [(I-6), 2-(difluoromethyl)-N-[(3R)-1,1-dimethyl-3-propyl-2,3-dihydro-1H-inden-4-yl]nicotinamide]
Alternaria solani; 0.5 ppm a.i., the 1st table
  Efficacy in % found: 30%
Phakopsora pachyrhizi; 0.25 ppm a.i., the 5th table
  Efficacy in % found: 95%
Phakopsora pachyrhizi; 1 ppm a.i., the 5th table
  Efficacy in % found: 93%
